US6506339B1, “Method of sterilization” (Biomedical Design, Inc., priority 1997, dated 2003)
Values joined by “and” are separate entries in the source; they are usually repeats but may differ in a detail not shown here. Equal entries are not always repeated.

Tests used:
[1] = test system: spores of Bacillus subtilis; experiment: Effect of EDC concentration, temperature and duration on spores on cross-linked tissue (Example 4); type: cell-based; settings: 20% IPA
Procedure: The following experiment was designed to test the effect of EDC concentration, of temperature and of duration of incubation on the inactivation of spores of Bacillus subtilis. The EDC concentrations tested were 5, 12.5 and 20 mM; the temperatures were 25, 32.5 and 40° C. for 4, 24 and 44 hours of incubation. […] Spores of Bacillus subtilis (about 2.5×10^5 per sample) were inoculated on tissue that had been cross-linked using the fixation method described in the '536 patent. The spores were allowed to contact the tissue for 10 minutes, after which time 50 ml of a solution of EDC at one of the concentrations indicated above was added to each cup containing the tissue plus the spores, and incubation was carried out at the respective temperatures and for the respective lengths of time. After such incubation for either 4, 24 or 44 hours, the solutions were filtered to recover the spores, and these were incubated on TSA plates for 2 weeks at 32 to 33° C. The tissue samples were washed with a solution containing a surfactant to fully extract the spores from the tissue, and the resulting solutions were filtered. After washing with 0.1% peptone water, the filters were incubated on TSA plates for 2 weeks at 32 to 33° C. in order to determine the number of survivors on or in the tissue. The colonies were enumerated for both the EDC solutions and the tissue wash solutions, and the results (numbers of colony forming units) were added.

[2] = test system: Bacillus subtilis ATCC 9372 spores; experiment: Sterilization test with or without coupling enhancer (Example 3); type: cell-based; settings: 20 mM EDC, 20% isopropyl alcohol, 72 hours, about 40° C.
Procedure: In the experiments described above, a coupling enhancer (Sulfo-NHS) was added to EDC during the sterilization process. The following experiment was designed to test the efficacy of EDC in the presence or absence of an enhancer. A sterilization test process was carried out employing about 5.7 to 6.6×10^5 Bacillus subtilis ATCC 9372 spores, inoculating them in sterile cups for 10 minutes. A solution of 10 mM HEPES, 0.85% NaCl, 20% isopropyl alcohol, pH 6.5 was then added to each of the cups, which solution contained 20 mM EDC and either 1 mM Sulfo-NHS or 1 mM NHS or no enhancer. Incubation was carried out for 72 hours (treatment duration) with the cups at about 40° C., and the solutions from the cups were then filtered. The filters were rinsed with a 0.1% peptone water solution to eliminate any residual EDC and/or enhancer and were then incubated on Trypticase Soy Agar (TSA) plates.

[3] = test system: Methylbacterium extorquens ATCC 43645 vegetative cells; experiment: Sterilization in cups at about 38° C. (Example 6); type: cell-based, Methylobacterium extorquens; settings: 25 mM EDC, 20% isopropanol, inoculum Log 10 6.94
Procedure: In view of the foregoing verification, it was decided to test the effectiveness of the sterilization process against other bacteria using sterile cups. Added to each of the cups is 20 ml of 10 mM HEPES, 0.85%, Nacl, 20% isopropanol, pH 6.5, containing 25 mM EDC without any coupling enhancer, before the cups are placed in a incubator at about 38° C. When the solution temperature reached about 38° C., approximately 10^5-10^6 organisms were inoculated into the solution. The tests were carried out in triplicate. The following four isolated were tested in the form of sporous suspensions: Clostridium sporogenes ATCC 3584, Bacillus pumilus ATCC 27142, Chaetonium globosom ATCC 6205, and Microacus cinereus ATCC 16594. The following three isolates were tested as vegetative cells: Mycobacterium chelonae ATCC 35752, Methylbacterium extorquens ATCC 43645 and Trichosporon aquatile ATCC 22310. The inoculated systems were allowed to incubate for 1 hour, for 5 hours or for 24 hours, and the solutions were then filtered through a 0.45 micron filter. After rinsing, the filter was placed on a TSA plate as described in Example 1. Negative and positive controls indicate that the tests were valid. The results are set forth in Table D which follows wherein the number of CFUs in the inoculum is expressed as its log to the base 10, e.g. 3.4×10^5=5.5: […]

[4] = 5 mM EDC, 25° C., 4 hrs, about 2.5×10^5 spores on tissue
[5] = 5 mM EDC, 25° C., 44 hrs, about 2.5×10^5 spores on tissue
[6] = 5 mM EDC, 32.5° C., 24 hrs, about 2.5×10^5 spores on tissue
[7] = 5 mM EDC, 40° C., 4 hrs, about 2.5×10^5 spores on tissue
[8] = 12.5 mM EDC, 25° C., 24 hrs, about 2.5×10^5 spores on tissue
[9] = 12.5 mM EDC, 32.5° C., 4 hrs, about 2.5×10^5 spores on tissue
[10] = 12.5 mM EDC, 32.5° C., 24 hrs, about 2.5×10^5 spores on tissue (conditions 8-11, replicates), hydrochloride
[11] = 12.5 mM EDC, 32.5° C., 44 hrs, about 2.5×10^5 spores on tissue
[12] = 12.5 mM EDC, 40° C., 24 hrs, about 2.5×10^5 spores on tissue
[13] = 20 mM EDC, 25° C., 4 hrs, about 2.5×10^5 spores on tissue
[14] = 20 mM EDC, 25° C., 44 hrs, about 2.5×10^5 spores on tissue
[15] = 20 mM EDC, 32.5° C., 24 hrs, about 2.5×10^5 spores on tissue

In the case of CCN=C=NCCCN(C)C.Cl [EDC, 1-ethyl-3(3-dimethylaminopropyl)carbodiimide hydrochloride], the “LOG REDUCTION” value [1, 4] is reported as “.27”, the SURVIVORS [1, 4] is reported as 135000 CFUs and the “LOG REDUCTION” value [1, 5] is reported as 2.3. The SURVIVORS [1, 5] was 1300 CFUs, the “LOG REDUCTION” value [1, 6] was 3.0 and the SURVIVORS [1, 6] was 208 CFUs. For the same molecule, the “LOG REDUCTION” value [1, 7] was 2.4, the SURVIVORS [1, 7] was 1100 CFUs and the SURVIVORS ([1]; 5 mM EDC, 40° C., 44 hrs, about 2.5×10^5 spores on tissue) was 21 CFUs. For the same molecule, the “LOG REDUCTION” value [1, 8] was 3.0, the SURVIVORS [1, 8] was 225 CFUs and the “LOG REDUCTION” value [1, 9] was 1.6. For the same molecule, the SURVIVORS [1, 9] was 5900 CFUs, the “LOG REDUCTION” value [1, 10] was 3.6 and 3.9 and 3.4 and 3.7 and the SURVIVORS [1, 10] was 57 CFUs and 34 CFUs and 94 CFUs and 44 CFUs. For the same molecule, the “LOG REDUCTION” value [1, 11] was 3.9, the SURVIVORS [1, 11] was 33 CFUs and the “LOG REDUCTION” value [1, 12] was 4.0. The SURVIVORS [1, 12] was 27 CFUs, the “LOG REDUCTION” value [1, 13] was 0.9 and the SURVIVORS [1, 13] was 31400 CFUs. For the same molecule, the “LOG REDUCTION” value [1, 14] was 4.2, the SURVIVORS [1, 14] was 16 CFUs and the “LOG REDUCTION” value [1, 15] was 4.0. The SURVIVORS [1, 15] was 24 CFUs, the SURVIVORS ([1]; 20 mM EDC, 40° C., 4 hrs, about 2.5×10^5 spores on tissue) was 5 CFUs and the “LOG REDUCTION” value ([1]; 20 mM EDC, 40° C., 44 hrs, about 2.5×10^5 spores on tissue) was 5.4. The “NUMBER OF COLONY FORMING UNITS (SURVIVORS)” value ([2]; enhancer 1 mM NHS) was 0, the “NUMBER OF COLONY FORMING UNITS (SURVIVORS)” value ([2]; enhancer 1 mM sulfo-NHS) was 0 and the “NUMBER OF COLONY FORMING UNITS (SURVIVORS)” value ([2]; no enhancer) was 0. The “Log REDUCTION” value ([3]; 1 Hour) was 6.94 and the “Log REDUCTION” value ([3]; 5 Hours) was 6.94.
